{"source": "patent US20080279775A1", "about": "“Benztropinamine Analogs as Dopamine Uptake Inhibitors” (priority 2005, published 2008)", "key": {"DAT": {"target": "T1, DAT (Rattus norvegicus, UniProt P23977)", "T1 construct": "their brains removed to an ice-cooled dish for dissection of the caudate putamen; from tissue; host or cells: rat caudate putamen membranes (fresh homogenates)", "T1 sequence (P23977 whole entry)": "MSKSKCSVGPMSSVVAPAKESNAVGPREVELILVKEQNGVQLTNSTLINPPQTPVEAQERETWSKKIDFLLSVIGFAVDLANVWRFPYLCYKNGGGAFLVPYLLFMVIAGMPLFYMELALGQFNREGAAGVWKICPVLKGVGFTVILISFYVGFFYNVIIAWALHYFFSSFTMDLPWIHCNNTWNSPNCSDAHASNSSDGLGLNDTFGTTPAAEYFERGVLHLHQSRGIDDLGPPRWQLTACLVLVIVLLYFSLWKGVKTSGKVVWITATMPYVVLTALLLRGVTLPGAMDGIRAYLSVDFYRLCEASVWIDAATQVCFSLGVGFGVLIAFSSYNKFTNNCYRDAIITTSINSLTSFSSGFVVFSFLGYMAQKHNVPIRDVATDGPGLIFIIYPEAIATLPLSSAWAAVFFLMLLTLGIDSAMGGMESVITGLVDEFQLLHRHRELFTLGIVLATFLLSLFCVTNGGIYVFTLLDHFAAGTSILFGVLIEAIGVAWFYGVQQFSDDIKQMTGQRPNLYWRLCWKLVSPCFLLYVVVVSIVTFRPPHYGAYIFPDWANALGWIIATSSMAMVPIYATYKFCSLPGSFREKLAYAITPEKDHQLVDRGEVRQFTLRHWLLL", "assay": "Dopamine transporter binding assay, displacement of [3H]WIN 35,428", "conditions": "rat caudate-putamen membranes; read-out: DAT [3H]WIN 35,428 Ki ± SEM"}, "NET": {"test_system": "NET", "format": "binding, rat", "conditions": "Ki ratio", "experimental": "(§1) In order to understand the neurochemical and behavioral properties of the compounds of the present invention, exemplary benztropinamine analogs were evaluated for displacement of [^3H]WIN 35,428 (2β-carbomethoxy-3β-(4-fluorophenyl)tropane) binding to the DAT in rat caudate-putamen. These benztropinamine analogs were also evaluated for displacement of radiolabeled ligand binding at the serotonin (SERT) and norepinephrine (NET) transporters as well as the muscarinic m1 receptor (M1), Table 1, infra. The NET over DAT selectivity refers to the Ki ratio. When the Ki ratio is greater than 1, the compound is DAT selective. The DAT selectivities of the analogs over these binding sites are depicted in Table 2.\n[^3H]Nisoxetine Binding Assay. Membranes from frozen frontal cortex dissected from male Sprague-Dawley rats (Taconic Labs, Germantown, N.Y.) were homogenized in 20 volumes (w/v) of 50 mM Tris containing 120 mM NaCl and 5 mM KCl (pH 7.4 at 25° C.), using a Brinkman Polytron (at setting 6 for 20 sec). The tissue was centrifuged at 50,000×g for 10 min at 4° C. The resulting pellet was resuspended in buffer and recentrifuged. The final pellet was resuspended in cold buffer to a concentration of 80 mg/ml (original wet weight). Ligand binding experiments were conducted in assay tubes containing 0.5 ml buffer, 0.5 nM [3H]nisoxetine (New England Nuclear, Boston, Mass.), and 8 mg frontal cortex tissue. The reaction was started with the addition of the tissue and the tubes were incubated for 60 min at 0-4° C. The incubation was terminated by rapid filtration through Whatman GF/B filters, presoaked in 0.05% polyethylenimine, using a Brandel Cell Harvester (Brandel Instruments Gaithersburg, Md.). The filters were washed twice with 5 ml cold buffer, transferred to scintillation vials to which Beckman Ready Safe was added. Nonspecific binding was determined using 1 μM desipramine. Data were analyzed using GraphPad Prism software (San Diego, Calif.)."}, "mice": {"test_system": "mice", "assay": "Locomotor stimulant effects (activity counts per minute)", "format": "in vivo", "text": "In contrast, 2m produced much more modest increases in activity of around 100 counts per min."}, "rats": {"test_system": "rats", "assay": "Cocaine drug discrimination (cocaine-like subjective effects)", "format": "in vivo", "conditions": "rats trained to discriminate cocaine from vehicle, over the dose range tested, FIGS. 3A and 3B", "text": "FIG. 3A depicts % drug responding as a function of dose; FIG. 3B depicts % control response rate as a function of dose.\nRats were trained to emit one response after an injection of cocaine and a different response after injection of vehicle. Once the subjects were well trained, they act as detectors of cocaine-like subjective effects."}, "SERT": {"target": "T2, SERT (Rattus norvegicus, UniProt P31652)", "T2 construct": "Membranes from frozen rat midbrain were homogenized; from tissue; host or cells: frozen rat midbrain membranes", "T2 sequence (P31652 whole entry)": "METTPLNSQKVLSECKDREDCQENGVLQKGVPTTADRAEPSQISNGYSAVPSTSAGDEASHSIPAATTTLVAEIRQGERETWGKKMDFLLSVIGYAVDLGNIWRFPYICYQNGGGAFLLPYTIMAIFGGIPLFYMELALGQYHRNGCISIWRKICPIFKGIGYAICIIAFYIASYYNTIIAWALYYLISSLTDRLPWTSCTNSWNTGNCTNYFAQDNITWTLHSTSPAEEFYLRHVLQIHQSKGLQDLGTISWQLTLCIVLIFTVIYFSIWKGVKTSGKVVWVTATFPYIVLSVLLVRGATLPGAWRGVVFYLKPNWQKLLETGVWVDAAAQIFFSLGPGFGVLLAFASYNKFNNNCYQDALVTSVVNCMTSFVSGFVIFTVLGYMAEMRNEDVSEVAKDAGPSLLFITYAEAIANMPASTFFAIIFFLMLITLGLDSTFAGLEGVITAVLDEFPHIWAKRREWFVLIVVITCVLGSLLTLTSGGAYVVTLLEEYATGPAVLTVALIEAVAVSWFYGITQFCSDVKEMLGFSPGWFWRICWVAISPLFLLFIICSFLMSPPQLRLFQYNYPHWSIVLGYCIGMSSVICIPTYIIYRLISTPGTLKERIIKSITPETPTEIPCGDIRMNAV", "assay": "[3H]Citalopram binding assay", "experimental": "as §1\n[^3H]Citalopram Binding Assay. Membranes from frozen rat midbrain were homogenized in 20 volumes (w/v) of 50 mM Tris containing 120 mM NaCl and 5 mM KCl (pH 7.4 at 25° C.), using a Brinkman Polytron (at setting 6 for 20 sec). The tissue was centrifuged at 20,000×g for 10 min at 4° C. The resulting pellet was resuspended in buffer and recentrifuged. The final pellet was resuspended in cold buffer to a concentration of 15 mg/ml (original wet weight). Ligand binding experiments were conducted in assay tubes containing 0.5 ml of buffer, 1.4 nM [^3H]citalopram (New England Nuclear, Boston Mass.), and 1.5 mg midbrain tissue. The reaction was started with the addition of the tissue and the tubes were incubated for 60 min at 25° C. (room temperature). The incubation was terminated by rapid filtration through Whatman GF/B filters (presoaked in 0.3% polyethylenimine in water) using a Brandel Cell Harvester (Brandel Instruments Gaithersburg, Md.). The filters were washed twice with 5 ml cold buffer, transferred to scintillation vials to which Beckman Ready Safe was added. Nonspecific binding was determined using 10 μM fluoxetine (RBI, Natick, Mass.). Data were analyzed using GraphPad Prism software (San Diego, Calif.)."}, "muscarinic M1 receptor": {"target": "T3, muscarinic M1 receptor (Rattus norvegicus, UniProt P08482)", "T3 construct": "Membranes from frozen rat brains excluding cerebellum were thawed in ice-cold buffer; from tissue; host or cells: frozen rat brain (excluding cerebellum) membranes", "T3 sequence (P08482 1-460)": "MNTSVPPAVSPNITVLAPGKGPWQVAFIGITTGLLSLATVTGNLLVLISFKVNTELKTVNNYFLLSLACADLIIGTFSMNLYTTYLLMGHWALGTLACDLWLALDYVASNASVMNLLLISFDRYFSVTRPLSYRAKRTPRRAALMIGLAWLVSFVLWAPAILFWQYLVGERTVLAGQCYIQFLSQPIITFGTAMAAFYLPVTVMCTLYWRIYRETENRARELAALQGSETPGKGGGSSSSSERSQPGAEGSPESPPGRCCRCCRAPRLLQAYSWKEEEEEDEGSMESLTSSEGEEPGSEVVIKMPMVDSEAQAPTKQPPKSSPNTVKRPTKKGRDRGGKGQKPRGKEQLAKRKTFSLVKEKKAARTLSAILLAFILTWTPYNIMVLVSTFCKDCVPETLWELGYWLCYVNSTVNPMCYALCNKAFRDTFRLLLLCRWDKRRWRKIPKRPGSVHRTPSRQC", "assay": "[3H]Pirenzepine binding assay", "experimental": "as §1, with “When the Ki ratio is greater than 1, the compound is DAT selective.” left out\n[…] Binding Assay. Membranes from frozen rat brains excluding cerebellum were thawed in ice-cold buffer (10 mM Tris-HCl, 320 mM sucrose, pH 7.4) and homogenized with a Brinkman polytron in a volume of 10 ml/gm of tissue. The homogenate was centrifuged at 1,000×g for 10 min at 4° C. The resulting supernatant was then centrifuged at 10,000×g for 20 min at 4° C. The resulting pellet was resuspended in a volume of 200 mg/ml in 10 mM Tris buffer (pH 7.4). Ligand binding assays were conducted in tubes containing 0.5 ml of buffer (10 mM Tris-HCl, 5 mM MgCl2), 3 nM [^3H]pirenzepine (New England Nuclear, Boston, Mass.), and 20 mg of brain tissue. The reaction was started with the addition of the tissue and the tubes were incubated for 60 min in a 37° C. water bath. The incubation was terminated by the addition of 5 ml of ice-cold buffer (10 mM Tris-HCl, pH 7.4) and rapid filtration through Whatman GF/B glass fiber filter paper (presoaked in 0.5% polyethylenimine) using a Brandel Cell Harvester (Brandel Instruments, Gaithersburg, Md.). The filters were washed twice with 5 ml cold buffer, and transferred to scintillation vials to which absolute ethanol and Beckman Ready Safe was added. Quinuclidinyl benzilate (QNB), 100 μM final concentration, was used to determine non-specific binding. Data were analyzed by using GraphPad Prism software (San Diego, Calif.)."}}, "note": "Several values for one entry are separate records, joined by “and”; a condition that tells them apart may be missing. Equal entries are not always repeated. Entries after “also recorded” stand apart in the source; their conditions may differ.", "data": [{"smiles": "O=C(CCN1[C@@H]2CC[C@H]1C[C@@H](NC(c1ccc(F)cc1)c1ccc(F)cc1)C2)Nc1ccccc1", "note": "[Compound 2m]", "values": [{"measurement": "Ki", "setting": "DAT", "result": 4.61, "unit": "nM"}, {"measurement": "Binding selectivity NET/DAT", "setting": "NET", "result": "535 and 536"}, {"measurement": "Cocaine-like locomotor stimulant effects", "setting": "mice", "result": "lacks cocaine-like locomotor stimulant effects"}, {"measurement": "Locomotor activity", "setting": "mice; injected, at the most effective dose, FIG. 2", "result": "around 100 counts per min"}, {"measurement": "Cocaine-like subjective effects (substitution for cocaine)", "setting": "rats", "result": "lacks cocaine-like subjective effects; also recorded: did not substitute for cocaine"}, {"measurement": "Binding selectivity SERT/DAT", "setting": "SERT; Ki ratio", "result": 132}, {"measurement": "Ki", "setting": "SERT; rat midbrain membranes, read-out: SERT [3H]citalopram Ki ± SEM", "result": "608 ± 41", "unit": "nM"}, {"measurement": "Binding selectivity M1/DAT", "setting": "muscarinic M1 receptor; Ki ratio", "result": 551}, {"measurement": "Ki", "setting": "muscarinic M1 receptor; rat brain membranes excluding cerebellum, read-out: M1 [3H]pirenzepine Ki ± SEM", "result": "2540 ± 124", "unit": "nM"}]}]}
